Laboratory results from EP1641803B1, “THIENOPYRIMIDINE DERIVATIVES AS POTASSIUM CHANNEL INHIBITORS” (Xention Limited, priority 2003, dated 2004).

Tests used:
[1] = target: T1, human Kv1.5 (Homo sapiens, UniProt P22460); assay: Kv1.5 Rb+ Efflux Assay; type: cell-based; conditions: inhibition of 86Rb+ efflux through Kv1.5; cells stably transfected with human Kv1.5; 10 point concentration response curves n=2; normalised to 2.5mM 4 amino-pyridine block
T1 construct: expressed in transfected cells
Summary of the method: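 Cells stably expressing human Kv1.5 loaded with ⁸⁶Rb⁺ ≥3 h, preincubated 10 min at room temperature with compound, then depolarised with high-KCl (145mM) buffer for 10 min; effluxed ⁸⁶Rb⁺ counted by Cerenkov emission (alternatively ⁸⁵Rb⁺ by atomic absorption). Inhibition normalised to 2.5mM 4-aminopyridine block; IC50 from 10-point curves, n=2, variable-slope sigmoidal fit.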

[2] = target: hKv1.5 (Homo sapiens, UniProt P22460); assay: Kv1.5 Autopatch Electrophysiology (whole cell patch-clamp); type: cell-based; conditions: compound at 1µM, room temperature (22-24°C), held at -80mV, step to 0mV for 1000ms, total charge measured
hKv1.5, sequence (P22460 whole entry): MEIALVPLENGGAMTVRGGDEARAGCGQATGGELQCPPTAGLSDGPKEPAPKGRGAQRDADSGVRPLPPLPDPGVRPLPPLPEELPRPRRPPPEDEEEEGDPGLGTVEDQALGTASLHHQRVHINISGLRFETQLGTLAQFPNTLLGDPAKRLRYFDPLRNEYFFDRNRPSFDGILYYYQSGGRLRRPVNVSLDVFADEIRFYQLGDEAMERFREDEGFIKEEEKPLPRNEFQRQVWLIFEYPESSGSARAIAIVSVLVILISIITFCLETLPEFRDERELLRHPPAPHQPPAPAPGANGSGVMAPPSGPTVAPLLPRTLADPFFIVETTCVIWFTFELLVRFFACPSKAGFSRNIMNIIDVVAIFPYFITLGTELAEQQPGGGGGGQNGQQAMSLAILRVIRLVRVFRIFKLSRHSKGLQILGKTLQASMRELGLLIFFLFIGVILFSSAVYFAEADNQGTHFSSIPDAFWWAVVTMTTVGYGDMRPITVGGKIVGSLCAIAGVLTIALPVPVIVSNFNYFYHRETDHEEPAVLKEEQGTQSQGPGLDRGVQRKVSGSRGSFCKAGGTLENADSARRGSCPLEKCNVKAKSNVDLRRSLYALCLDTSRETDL
Summary of the method: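 Whole-cell automated patch-clamp at 22-24°C, compounds tested at 1µM in external bather (KCl/K-gluconate, pH 7.4; KCl/EGTA pipette). Cells held at -80mV and stepped to 0mV for 1000ms every 5s; only cells with IK > 500 pA and Rseries ≤18 MΩ used. Read-out: total charge over the whole step.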

T1 sequence (P22460 whole entry): as above

IC50 [1] [µM] | inhibition at 1 µM [2] [%] | % Inhibition at 1µM [2] [%] | SMILES
> 30 | 13.6 |  | CN(C)C(=O)CNc1ncnc2scc(-c3ccccc3)c12 [Example 103, N,N-Dimethyl-2-(5-phenyl-thieno[2,3-d]pyrimidin-4-ylamino)-acetamide]
0.93 | 84.8 |  | Clc1ccc(-c2csc3ncnc(NCc4ccco4)c23)cc1 [Example 135, [5-(4-Chloro-phenyl)-thieno[2,3-d]pyrimidin-4-yl]-furan-2-ylmethyl-amine]
5.14 | 3.4 |  | C=CCNc1ncnc2scc(-c3ccccc3)c12 [Example 87, Allyl-(5-phenyl-thieno[2,3-d]pyrimidin-4-yl)-amine]
4.49 | 40 | 22.2 | c1ccc(-c2csc3ncnc(NCCc4ccccn4)c23)cc1 [Example 111, (5-Phenyl-thieno[2,3-d]pyrimidin-4-yl)-(2-pyridin-2-yl-ethyl)-amine]
8.56 | 15.8 |  | c1ccc(-c2csc3ncnc(NCCc4cccs4)c23)cc1 [Example 118, (5-Phenyl-thieno[2,3-d]pyrimidin-4-yl)-(2-thiophen-2-yl-ethyl)-amine]
> 30 | 19.4 |  | COc1cc(CNc2ncnc3scc(-c4cccs4)c23)cc(OC)c1OC [Example 94, (5-Thiophen-2-yl-thieno[2,3-d]pyrimidin-4-yl)-(3,4,5-trimethoxy-benzyl)-amine]
0.37 | 97 |  | c1ccc(CNc2ncnc3scc(-c4ccc5c(c4)OCCO5)c23)nc1 [Example 320, [5-(2,3-Dihydro-benzo[1,4]dioxin-6-yl)-thieno[2,3-d]pyrimidin-4-yl]-pyridin-2-ylmethyl-amine]
3.9 | 14.2 |  | Cn1cccc1CNc1ncnc2scc(-c3ccccc3)c12 [Example 110, (1-Methyl-1H-pyrrol-2-ylmethyl)-(5-phenyl-thieno[2,3-d]pyrimidin-4-yl)-amine]
0.26 | 94 |  | COc1cccc(-c2csc3ncnc(NCc4ccccn4)c23)c1 [Example 322, [5-(3-Methoxyphenyl)-thieno[2,3-d]pyrimidin-4-yl]-pyridin-2-ylmethyl-amine]
19.7 | 74.5 |  | c1ccc(-c2nc(CNc3ncnc4scc(-c5ccccc5)c34)cs2)cc1 [Example 162, (2-Phenyl-thiazol-4-ylmethyl)-(5-phenyl-thieno[2,3-d]pyrimidin-4-yl)-amine]
6.53 | 43.3 |  | c1ccc(CNc2ncnc3scc(-c4cccs4)c23)cc1 [Example 97, Benzyl-(5-thiophen-2-yl-thieno[2,3-d]pyrimidin-4-yl)-amine]
7.07 |  | 45.9 | c1csc(CNc2ncnc3scc(-c4cccs4)c23)c1 [Example 115, Thiophen-2-ylmethyl-(5-thiophen-2-yl-thieno[2,3-d]pyrimidin-4-yl)-amine]
16.8 | 27.2 |  | Clc1ccc(-c2csc3ncnc(NCCc4ccccc4)c23)cc1 [Example 136, [5-(4-Chloro-phenyl)-thieno[2,3-d]pyrimidin-4-yl]-phenethyl-amine]
0.07 | 21.9 |  | c1ccc(-c2csc3ncnc(NCc4ccco4)c23)cc1 [Example 83, Furan-2-ylmethyl-(5-phenyl-thieno[2,3-d]pyrimidin-4-yl)-amine]
14.3 | 70.8 |  | c1ccc(CCNc2ncnc3scc(-c4cccs4)c23)cc1 [Example 163, Phenethyl-(5-thiophen-2-yl-thieno[2,3-d]pyrimidin-4-yl)-amine]
1.05 | 25.3 |  | c1ccc(-c2csc3ncnc(NCc4ccoc4)c23)cc1 [Example 107, Furan-3-ylmethyl-(5-phenyl-thieno[2,3-d]pyrimidin-4-yl)-amine]
0.01 | 97.3 |  | c1ccc(CNc2ncnc3scc(-c4ccc5c(c4)OCO5)c23)nc1 [Example 314, (5-Benzo[1,3]dioxol-5-yl-thieno[2,3-d]pyrimidin-4-yl)-pyridin-2-ylmethyl-amine]
10.7 | 96 |  | Brc1ccc(-c2csc3ncnc(NCCc4ccc5c(c4)OCCO5)c23)cc1 [Example 137, [5-(4-Bromo-phenyl)-thieno[2,3-d]pyrimidin-4-yl]-[2-(2,3-dihydro-benzo[1,4]dioxin-6-yl)-ethyl]-amine]

More lines, now with the values behind:

SMILES | IC50 [1] [µM] | inhibition at 1 µM [2] [%] | % Inhibition at 1µM [2] [%]
c1ccc(-c2csc3ncnc(SCc4ccccn4)c23)cc1 [Example 120, 5-Phenyl-4-(pyridin-2-ylmethylsulfanyl)-thieno[2,3-d]pyrimidine] | 12.7 | 25 | 
OCC(CO)Nc1nc(NCc2ccccn2)c2c(-c3ccccc3)csc2n1 [Example 210, 2-{5-Phenyl-4-[(pyridin-2-ylmethyl)-amino]-thieno[2,3-d]pyrimidin-2-ylamino}-propane-1,3-diol] | 0.74 | 95.6 | 
c1ccc(-c2csc3nc(NCC4CC4)nc(NCc4ccccn4)c23)cc1 [Example 188, N^2-Cyclopropylmethyl-5-phenyl-N^4-pyridin-2-ylmethyl-thieno[2,3-d]pyrimidine-2,4-diamine] | 2.52 | 98 | 
c1ccc(CNc2ncnc3scc(-c4ccc(N5CCOCC5)cc4)c23)nc1 [Example 332, [5-(4-Morpholin-4-yl-phenyl)-thieno[2,3-d]pyrimidin-4-yl]-pyridin-2-ylmethyl-amine] | 47.4 | 73 | 
FC(F)(F)c1nc(NCc2ccccn2)c2c(-c3ccccc3)csc2n1 [Example 151, (5-Phenyl-2-trifluoromethyl-thieno[2,3-d]pyrimidin-4-yl)-pyridin-2-ylmethyl-amine] | 1.68 | 95 | 
c1ccc(-c2csc3nc(N4CCOCC4)nc(NCc4ccccn4)c23)cc1 [Example 197, (2-Morpholin-4-yl-5-phenyl-thieno[2,3-d]pyrimidin-4-yl)-pyridin-2-ylmethyl-amine] | 0.15 | 98 | 
Cc1nc(NCc2ccccn2)c2c(-c3ccc(F)cc3)csc2n1 [Example 155, [5-(4-Fluorophenyl)-2-methyl-thieno[2,3-d]pyrimidin-4-yl]-pyridin-2-ylmethyl-amine] | 1.62 | 92.2 | 
OCCc1nc(NCc2ccccn2)c2c(-c3ccccc3)csc2n1 [Example 250, 2-{5-Phenyl-4-[(pyridin-2-ylmethyl)amino]thieno[2,3-d]pyrimidin-2-yl}ethanol] | 0.33 | 98 | 
COc1nc(NCc2ccccn2)c2c(-c3ccccc3)csc2n1 [Example 191, (2-Methoxy-5-phenyl-thieno[2,3-d]pyrimidin-4-yl)-pyridin-2-ylmethyl-amine] | 0.47 | 91.8 | 
N#Cc1nc(NCc2ccccn2)c2c(-c3ccccc3)csc2n1 [Example 199, 5-Phenyl-4-[(pyridin-2-ylmethyl)-amino]-thieno[2,3-d]pyrimidine-2-carbonitrile] | 6.61 | 99.5 | 
CCc1nc(NCc2ccco2)c2c(-c3ccccc3)csc2n1 [Example 153, (2-Ethyl-5-phenyl-thieno[2,3-d]pyrimidin-4-yl)-furan-2-ylmethyl-amine] | 3.63 | 96.8 | 
CN(C)c1nc(NCc2ccccn2)c2c(-c3ccc(F)cc3)csc2n1 [Example 200, 5-(4-Fluorophenyl)-N^2,N^2-dimethyl-N^4-pyridin-2-ylmethyl-thieno[2,3-d]pyrimidine-2,4-diamine] | 71.8 | 99.3 | 
COC(=O)c1ccc(Oc2ncnc3scc(-c4ccc(C)cc4)c23)cc1 [Example 131, 4-(5-p-Tolyl-thieno[2,3-d]pyrimidin-4-yloxy)-benzoic acid methyl ester] | > 30 | 29.8 | 
Clc1nc(NCc2ccccn2)c2c(-c3ccccc3)csc2n1 [Example 181, (2-Chloro-5-phenyl-thieno[2,3-d]pyrimidin-4-yl)-pyridin-2-ylmethyl-amine] | 4.13 | 96 | 
Cc1nc(NCc2ccco2)c2c(-c3ccccc3)csc2n1 [Example 150, Furan-2-ylmethyl-(2-methyl-5-phenyl-thieno[2,3-d]pyrimidin-4-yl)-amine] | 0.14 | 96.8 | 
COCCNc1nc(NCc2ccccn2)c2c(-c3ccc(F)cc3)csc2n1 [Example 209, 5-(4-Fluorophenyl)-N^2-(2-methoxy-ethyl)-N^4-pyridin-2-ylmethyl-thieno[2,3-d]pyrimidine-2,4-diamine] | 1.83 | 96 | 
Nc1nc(NCc2ccccn2)c2c(-c3ccc(F)cc3)csc2n1 [Example 205, 5-(4-Fluorophenyl)-N^4-pyridin-2-ylmethyl-thieno[2,3-d]pyrimidine-2,4-diamine] | 11.9 | 97.5 | 
CN(Cc1ccco1)c1ncnc2scc(-c3ccccc3)c12 [Example 88, Furan-2-ylmethyl-methyl-(5-phenyl-thieno[2,3-d]pyrimidin-4-yl)-amine] | 6.82 | 26.4 | 
OCC(CO)c1nc(NCc2ccccn2)c2c(-c3ccccc3)csc2n1 [Example 275, 2-{5-Phenyl-4-[(pyridin-2-ylmethyl)-amino]-thieno[2,3-d]pyrimidin-2-yl}-propane-1,3-diol] | 1.53 | 93 | 
